Source: patent US9636409B2, “Enzyme and receptor modulation using covalent conjugates of alpha,alpha-disubstituted glycine esters” (GlaxoSmithKline Intellectual Property Development Limited, priority 2008, dated 2017)
Read-outs that look alike come from different tables or passages of the source.

Key:
[1] = system: phosphorylation of MAPKAP-2 in HUT 78 cells; assay: p38 MAP Kinase cellular assay: inhibition of phosphorylation of MAPKAP2 in HUT 78 cells; type: cell-based; settings: Table 3; for IC50: Homo sapiens, HuT78, HUT 78 non-monocyte cell line; for Ratio IC50s in HUT 78 to U937 cells: MAPKAP-2 phosphorylation IC50s
Method: (§1) p38 MAP Kinase Cellular Assay: Inhibition of Phosphorylation of MAPKAP2
(§2) U937 or HUT78 cells were plated in RPMI 1640, and were incubated at 37° C., 5% CO2 for 18 hours. 10 mM stocks of compounds were diluted media/0.1% DMSO to give a log or semi-log dilution series. The wells for ‘no treatment’ and ‘anisomycin’ were treated with 0.1% DMSO only. The cells were incubated at 37° C., 5% CO2 for a further 4 hours. Anisomycin was added to all wells except ‘no treatment’ at a final concentration of 10 μM. The cells were incubated at 37° C., 5% CO2 for 30 minutes before harvest. Plates were stood on ice whilst harvesting, and all following steps were carried out at 4° C. The cells were pelleted at 1000 rpm for 10 minutes at 4° C., the media aspirated, and the pellet washed with cold PBS. The pellets were lysed in 120 μl of SDS lysis buffer (62.5 mM Tris, pH 6.8, 2% SDS, 10% glycerol, 50 mM DTT, with protease inhibitors and phosphatase inhibitors added according to the manufacturers' recommendations). After 30 minutes on ice, the samples were sonicated for 5 seconds before centrifugation at 13,000 rpm 4° C. for 10 minutes to remove cell debris. 10 μl of the resulting gel samples were loaded per lane on NOVEX 4-12% Bis-Tris MOPS gels. Membranes from western transfer of gels were blotted with anti-phospho MAPKAP2, anti-phospho HSP27 and anti GAPDH according to the manufacturers' Instructions. Signal was visualised using HRP-Hnked anti-rabbit or anti-mouse antibodies, ECL reagent and ECL film. IC50 values for the various compounds were visualised from the resulting photographic images, using both band-shift and signal intensity.

[2] = system: phosphorylation of MAPKAP-2 in U937 cells; assay: p38 MAP Kinase cellular assay: inhibition of phosphorylation of MAPKAP2 in U937 cells; type: cell-based; settings: for IC50: Homo sapiens, U-937, Table 3, U937 monocyte cell line, read-out: Inhibition of phosphorylation of MAPKAP-2 in U937 cells (IC50, nM) (monocyte cell line)
Method: as §1, §2

HUT 78 cells = assay: HUT cell inhibition assay (WST-1 proliferation); type: cell-based; settings: Table 5
Method: (§3) U937 and HUT Cell Inhibition Assay
(§4) Cancer cell lines (U937 and HUT) growing in log phase were harvested and seeded at 1000-2000 cells/well (100 μl final volume) into 96-well tissue culture plates. Following 24 hours of growth cells were treated with compound. Plates were then re-Incubated for a further 72-96 hours before a WST-1 cell viability assay was conducted according to the suppliers (Roche Applied Science) instructions.
(§5) Data were expressed as a percentage inhibition of the control, measured in the absence of Inhibitor, as follows: % inhibition=100−[(S^i/S^o)×100] where S^i is the signal in the presence of Inhibitor and S^o s the signal in the presence of DMSO.
(§6) Dose response curves were generated from 8 concentrations (top final concentration 10 μM, with 3-fold dilutions), using 6 replicates.
(§7) IC50 values were determined by non-linear regression analysis, after fitting the results to the equation for sigmoidal dose response with variable slope (% activity against log concentration of compound), using Graphpad Prism software.

[3] = target: histone deacetylase activity (HeLa nuclear extract); assay: Histone deacetylase activity (Fluor de Lys, HeLa nuclear extract); type: biochemical; settings: read-out: Inhibition of HDAC (IC50 nM)
Method: Histone Deacetylase Activity
The ability of compounds to inhibit histone deacetylase activities was measured using the commercially available HDAC fluorescent activity assay from Biomol. In brief, the Fluor de Lys™ substrate, a lysine with an epsilon-amino acetylation, is incubated with the source of histone deacetylase activity (HeLa nuclear extract) in the presence or absence of inhibitor. Deacetylation of the substrate sensitises the substrate to Fluor de Lys™ developer, which generates a fluorophore. Thus, incubation of the substrate with a source of HDAC activity results in an increase in signal that is diminished in the presence of an HDAC inhibitor.
Data are expressed as a percentage of the control, measured in the absence of inhibitor, with background signal being subtracted from all samples, as follows: % activity=[(S^i−B)/(S^o−B)]×100 where S^i is the signal in the presence of substrate, enzyme and Inhibitor, S^o is the signal in the presence of substrate, enzyme and the vehicle in which the inhibitor is dissolved, and B is the background signal measured in the absence of enzyme.
IC50 values were determined by non-linear regression analysis, after fitting the results of eight data points to the equation for sigmoidal dose response with variable slope (% activity against log concentration of Compound), using Graphpad Prism software.
Histone deacetylase activity from crude nuclear extract derived from HeLa cells was used for screening. The preparation, purchased from 4C (Seneffe, Belgium), was prepared from HeLa cells harvested whilst in exponential growth phase. The nuclear extract was prepared according to the methodology described by J. D. Dignam, Nucl. Acid. Res., 1983, 11, 1475-1489, snap frozen in liquid nitrogen and stored at −80° C. The final buffer composition was 20 mM Hepes, 100 mM KCl, 0.2 mM EDTA, 0.5 mM DTT, 0.2 mM PMSF and 20% (v/v) glycerol.

U937 cells = assay: U937 cell inhibition assay (WST-1 proliferation); type: cell-based; settings: for IC50: Homo sapiens, U-937
Method: as §3, §4, §5, §6, §7

Row | IC50 [1] [nM] | IC50 [2] [nM] | IC50 ([3]; Table 4, Acid = carboxylic acid hydrolysis product of the ester) [nM] | IC50 ([3]; Table 4, compound as such, Ester for Examples 7 and 9) [nM] | IC50 ([3]; Table 5, Acid = carboxylic acid hydrolysis product of the ester) [nM] | IC50 ([3]; Table 5, compound as such, Ester for Examples 7 and 9) [nM] | IC50 (U937 cells; Table 4, head prints no unit, same values in Table 5 as IC50 nM, read-out: Inhibition of proliferation in U937 cells) [nM] | IC50 (U937 cells; Table 5, U937 cells, read-out: Inhibition of proliferation in U937 cells (IC50 nM)) [nM] | Ratio cell IC50s to enzyme IC50 (U937 cells; Table 4, U937 proliferation IC50 to HDAC enzyme IC50) | SMILES | Ratio IC50s in HUT 78 to U937 cells [1] | macrophage selectivity (MAPKAP-2 phosphorylation, U937 versus HUT 78) ([2]; result in words) | IC50 (HUT 78 cells; Homo sapiens, HuT78, HUT 78 cells) [nM] | Ratio IC50s in HUT 78 to U937 cells (HUT 78 cells; proliferation IC50s) | potency in monocytic (U937) versus non monocytic (Hut78) cell lines (proliferation) (U937 cells; U937 versus Hut78) [times] | potency in the cellular (U937 proliferation) assay compared with the parent compound (U937 cells; versus Compound IV)
1 | 1 | 1 |  |  |  |  |  |  |  | Nc1c(C(=O)c2ccc(F)cc2F)ccc(=O)n1-c1c(F)cc(OCCC[C@H](N)C(=O)OC2CCCC2)cc1F [Compund III, reference compound] | 1 |  |  |  |  | 
2 | 100 | 5 |  |  |  |  |  |  |  | CC(N)(CCCOc1cc(F)c(-n2c(N)c(C(=O)c3ccc(F)cc3F)ccc2=O)c(F)c1)C(=O)OC1CCCC1 (stereo not drawn) [Example 5] | 20 | macrophage selective |  |  |  | 
3 |  |  | 6240 | 4900 | 6240 | 4900 | 190 | 190 | 0.04 | CC(C)CC(C)(NCc1ccc(CCC(=O)NO)cc1)C(=O)OC1CCCC1 (racemic) [Example 9, Cyclopentyl N-{4-[3-(hydroxyamino)-3-oxopropyl]benzyl}-2-methyl-D,L-leucinate] |  |  | 5500 | 30 | 30 | significantly more potent than the parent compound
4 | 10 | 10 |  |  |  |  |  |  |  | Nc1c(C(=O)c2ccc(F)cc2F)ccc(=O)n1-c1c(F)cccc1F [Compound II, reference compound] | 1 |  |  |  |  | 
